Test system: imiquimod-induced psoriasis
Assay: Imiquimod-induced psoriasis model
Format: in vivo, mice
Conditions: for Mean scores of the presence of erythema on the skin of animals at the area of induction of psoriasis / Mean scores of the presence of induration on the skin of animals at the area of induction of psoriasis / Mean scores of the presence of peeling on the skin of animals at the area of induction of psoriasis: mean ± SEM; for Mean PASI Scores in IMI-Psoriasis Model: mice
Procedure, shortened: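 Mice given topical imiquimod (5% cream) daily on depilated backs Days 1–14; Compound A in 5% DMSO/40% PEG-400/55% saline from Day 8, clobetasol topical as reference. Daily PASI (erythema, induration, peeling, each 0–4, summed) Days 8–15; spleen weight, open-field behaviour, serum IL-1B, IL-6, IL-17, TNF-α, IL-22, IL-23 at Day 15.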

[1] = IMI + 10 mg/kg, D8 (before start of treatment)

## Cn1cc(-c2ccccc2)c(-c2cn(C)c(=O)c3[nH]c(-c4cnn(C(F)(F)F)c4)cc23)cc1=O [Compound A, 6-methyl-4-(1-methyl-2-oxo-5-phenyl-1,2-dihydropyridin-4-yl)-2-(1-(trifluoromethyl)-1H-pyrazol-4-yl)-1,6-dihydro-7H-pyrrolo[2,3-c]pyridin-7-one]
IMI + 3 mg/kg, D15
  Mean scores of the presence of erythema on the skin of animals at the area of induction of psoriasis: 0.0 ± 0.0
  Mean scores of the presence of induration on the skin of animals at the area of induction of psoriasis: 0.1 ± 0.1
  Mean scores of the presence of peeling on the skin of animals at the area of induction of psoriasis: 0.3 ± 0.2
  Mean PASI Scores in IMI-Psoriasis Model: 0.4 ± 0.2
[1]
  Mean scores of the presence of erythema on the skin of animals at the area of induction of psoriasis: 2.3 ± 0.2
  Mean scores of the presence of induration on the skin of animals at the area of induction of psoriasis: 2.6 ± 0.2
  Mean scores of the presence of peeling on the skin of animals at the area of induction of psoriasis: 2.3 ± 0.3
  Mean PASI Scores in IMI-Psoriasis Model: 7.1 ± 0.4
IMI + 10 mg/kg, D9
  Mean scores of the presence of erythema on the skin of animals at the area of induction of psoriasis: 1.2 ± 0.2
  Mean scores of the presence of induration on the skin of animals at the area of induction of psoriasis: 2.0 ± 0.3
  Mean scores of the presence of peeling on the skin of animals at the area of induction of psoriasis: 2.0 ± 0.3
  Mean PASI Scores in IMI-Psoriasis Model: 5.3 ± 0.6
IMI + 10 mg/kg, D10
  Mean scores of the presence of erythema on the skin of animals at the area of induction of psoriasis: 1.0 ± 0.2
  Mean scores of the presence of induration on the skin of animals at the area of induction of psoriasis: 1.8 ± 0.2
  Mean scores of the presence of peeling on the skin of animals at the area of induction of psoriasis: 1.5 ± 0.2
  Mean PASI Scores in IMI-Psoriasis Model: 4.3 ± 0.5
IMI + 10 mg/kg, D11
  Mean scores of the presence of erythema on the skin of animals at the area of induction of psoriasis: 1.3 ± 0.2
  Mean scores of the presence of induration on the skin of animals at the area of induction of psoriasis: 1.6 ± 0.2
  Mean scores of the presence of peeling on the skin of animals at the area of induction of psoriasis: 1.5 ± 0.2
  Mean PASI Scores in IMI-Psoriasis Model: 4.4 ± 0.4
IMI + 10 mg/kg, D12
  Mean scores of the presence of erythema on the skin of animals at the area of induction of psoriasis: 0.5 ± 0.2
  Mean scores of the presence of induration on the skin of animals at the area of induction of psoriasis: 1.1 ± 0.2
  Mean scores of the presence of peeling on the skin of animals at the area of induction of psoriasis: 1.3 ± 0.2
  Mean PASI Scores in IMI-Psoriasis Model: 2.9 ± 0.5
IMI + 10 mg/kg, D13
  Mean scores of the presence of erythema on the skin of animals at the area of induction of psoriasis: 0.1 ± 0.1
  Mean scores of the presence of induration on the skin of animals at the area of induction of psoriasis: 0.8 ± 0.2
  Mean scores of the presence of peeling on the skin of animals at the area of induction of psoriasis: 0.6 ± 0.2
  Mean PASI Scores in IMI-Psoriasis Model: 1.5 ± 0.2
IMI + 10 mg/kg, D14
  Mean scores of the presence of erythema on the skin of animals at the area of induction of psoriasis: 0.0 ± 0.0
  Mean scores of the presence of induration on the skin of animals at the area of induction of psoriasis: 0.4 ± 0.2
  Mean scores of the presence of peeling on the skin of animals at the area of induction of psoriasis: 0.3 ± 0.2
  Mean PASI Scores in IMI-Psoriasis Model: 0.6 ± 0.2
IMI + 10 mg/kg, D15
  Mean scores of the presence of erythema on the skin of animals at the area of induction of psoriasis: 0.0 ± 0.0
  Mean scores of the presence of induration on the skin of animals at the area of induction of psoriasis: 0.1 ± 0.1
  Mean scores of the presence of peeling on the skin of animals at the area of induction of psoriasis: 0.3 ± 0.2
  Mean PASI Scores in IMI-Psoriasis Model: 0.4 ± 0.2
IMI + 1 mg/kg, D8 (before start of treatment)
  Mean PASI Scores in IMI-Psoriasis Model: 7.3 ± 0.3
IMI + 1 mg/kg, D9
  Mean PASI Scores in IMI-Psoriasis Model: 7.0 ± 0.4
IMI + 1 mg/kg, D10
  Mean PASI Scores in IMI-Psoriasis Model: 6.0 ± 0.4
IMI + 1 mg/kg, D11
  Mean PASI Scores in IMI-Psoriasis Model: 5.8 ± 0.5
IMI + 1 mg/kg, D12
  Mean PASI Scores in IMI-Psoriasis Model: 4.4 ± 0.3
IMI + 1 mg/kg, D13
  Mean PASI Scores in IMI-Psoriasis Model: 3.1 ± 0.4
IMI + 1 mg/kg, D14
  Mean PASI Scores in IMI-Psoriasis Model: 2.1 ± 0.3
IMI + 1 mg/kg, D15
  Mean PASI Scores in IMI-Psoriasis Model: 1.1 ± 0.2
IMI + 3 mg/kg, D8 (before start of treatment)
  Mean PASI Scores in IMI-Psoriasis Model: 6.9 ± 0.4
IMI + 3 mg/kg, D9
  Mean PASI Scores in IMI-Psoriasis Model: 6.8 ± 0.4
IMI + 3 mg/kg, D10
  Mean PASI Scores in IMI-Psoriasis Model: 5.5 ± 0.3
IMI + 3 mg/kg, D11
  Mean PASI Scores in IMI-Psoriasis Model: 4.0 ± 0.3
IMI + 3 mg/kg, D12
  Mean PASI Scores in IMI-Psoriasis Model: 3.5 ± 0.4
IMI + 3 mg/kg, D13
  Mean PASI Scores in IMI-Psoriasis Model: 1.8 ± 0.3
IMI + 3 mg/kg, D14
  Mean PASI Scores in IMI-Psoriasis Model: 0.8 ± 0.3
mouse, in vivo
  body weight change over the last 7 days: weight gains
  erythema, induration and peeling of the skin at the area of induction: significantly reduced
Relative to vehicle-treated psoriasis animals
  use of enrichment (nesting): restored the use of enrichment
serum, day 15
  IL-17 level, lower than vehicle (placebo) treated animals: > 93%
